Experimental data taken from patent US20250197406A1, “INDAZOLES AS HEMATOPOIETIC PROGENITOR KINASE 1 (HPK1) INHIBITORS AND METHODS FOR USING SAME” (1ST Biotherapeutics, Inc., priority 2022, published 2025).

Molecular target: recombinant human HPK1 (Homo sapiens (Human), UniProt Q92918)
Experiment: HPK1 kinase assay (Promega ADP-Glo kinase assay)
Format: biochemical
Conditions: In vitro activity against HPK1, 5 ng HPK1, MBP substrate, ATP 25 μM, 30° C. 40 minutes
Method: HPK1 kinase activity was measured by Promega's ADP-Glo™ kinase assay. In this assay, 5 ng of recombinant human HPK1 (signalchem) is incubated with 5 μL of compounds (0.5% DMSO), 5 μL of MBP (0.5 μg/μl) and 5 μL of ATP (25 μM) in buffer (40 mM Tris, 7.5; 20 mM MgCl2; 0.1 mg/ml BSA; 50 μM DTT.). The assay was started by incubating the reaction mixture in a 96-well plate at 30° C. for 40 minutes. After the incubation, 25 μL ADP-Glo reagent was added and the reaction was incubated at room temperature for 40-min to stop the reaction and degrade residual ATP. The ADP product was then converted to ATP by adding 50 μL per well of detection reagent. Luminescence was detected after 30-min room temperature incubation with the Molecular device I3X plate reader. The IC50 values were calculated from a series of percent inhibition values determined at a range of inhibitor concentration using software routines as implemented in the GraphPad Prism 7 software and SigmaPlot13.0.

recombinant human HPK1, sequence (Q92918 whole entry): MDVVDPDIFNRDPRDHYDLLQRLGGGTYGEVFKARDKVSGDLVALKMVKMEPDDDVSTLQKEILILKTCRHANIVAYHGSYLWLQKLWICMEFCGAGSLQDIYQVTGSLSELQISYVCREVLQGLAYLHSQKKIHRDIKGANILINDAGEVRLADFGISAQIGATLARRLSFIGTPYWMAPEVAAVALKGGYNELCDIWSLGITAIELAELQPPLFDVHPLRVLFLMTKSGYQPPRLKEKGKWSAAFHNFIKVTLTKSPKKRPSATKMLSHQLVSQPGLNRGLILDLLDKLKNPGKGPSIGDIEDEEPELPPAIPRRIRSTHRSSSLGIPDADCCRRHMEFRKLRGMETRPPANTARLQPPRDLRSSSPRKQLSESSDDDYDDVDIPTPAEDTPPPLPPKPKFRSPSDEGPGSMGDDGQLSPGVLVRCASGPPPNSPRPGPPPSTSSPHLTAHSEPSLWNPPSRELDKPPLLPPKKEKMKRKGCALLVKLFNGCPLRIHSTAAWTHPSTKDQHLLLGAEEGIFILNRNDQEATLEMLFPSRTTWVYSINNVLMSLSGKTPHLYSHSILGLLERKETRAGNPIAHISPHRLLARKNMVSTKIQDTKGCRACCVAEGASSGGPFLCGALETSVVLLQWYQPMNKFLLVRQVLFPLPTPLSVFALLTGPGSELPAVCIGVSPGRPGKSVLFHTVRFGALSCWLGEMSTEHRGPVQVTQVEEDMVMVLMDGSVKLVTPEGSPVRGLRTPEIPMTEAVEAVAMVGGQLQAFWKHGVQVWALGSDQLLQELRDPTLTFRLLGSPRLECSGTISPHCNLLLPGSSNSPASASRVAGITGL

IC50 [nM]	SMILES
501 to 1000	COC(=O)NC1(C(=O)Nc2cn3cc(-c4c(Cl)c(F)c(NC(C)C)c5[nH]ncc45)ncc3n2)CC1 [Example 47, methyl (1-((6-(5-chloro-6-fluoro-7-(isopropylamino)-1H-indazol-4-yl)imidazo[1,2-a]pyrazin-2-yl)carbamoyl)cyclopropyl)carbamate]
< 100	CC(NC(=O)C1CC1)c1c(F)c(C(F)F)c(-c2cn3cc(NC(=O)[C@@H]4C[C@@H]4F)nc3cn2)c2cn[nH]c12 (stereo partly drawn) [Example 76, (1S,2S)-N-(6-(7-(1-(cyclopropanecarboxamido)ethyl)-5-(difluoromethyl)-6-fluoro-1H-indazol-4-yl)imidazo[1,2-a]pyrazin-2-yl)-2-fluorocyclopropane-1-carboxamide]
101 to 500	CC(C)Nc1c(F)c(Cl)c(-c2cn3cc(NC(=O)C(C)(C)C)nc3cn2)c2cn[nH]c12 [Example 82, N-(6-(5-chloro-6-fluoro-7-(isopropylamino)-1H-indazol-4-yl)imidazo[1,2-a]pyrazin-2-yl)pivalamide]
< 100	COC(=O)Nc1cn2cc(-c3c(Cl)c(F)c(NC(C)C)c4[nH]ncc34)ncc2n1 [Example 113, methyl (6-(5-chloro-6-fluoro-7-(isopropylamino)-1H-indazol-4-yl)imidazo[1,2-a]pyrazin-2-yl)carbamate]
101 to 500	CC(N)c1c(F)c(C(F)F)c(-c2cn3cc(NC(=O)[C@@H]4C[C@@H]4F)nc3cn2)c2cn[nH]c12 (stereo partly drawn) [Example 55, (1S,2S)-N-(6-(7-(1-aminoethyl)-5-(difluoromethyl)-6-fluoro-1H-indazol-4-yl)imidazo[1,2-a]pyrazin-2-yl)-2-fluorocyclopropane-1-carboxamide]
501 to 1000	CC(=O)Nc1cn2cc(-c3c(Cl)c(F)c(C(C)N4CC(O)C4)c4[nH]ncc34)ncc2n1 (stereo not drawn) [Example 161, N-(6-(5-chloro-6-fluoro-7-(1-(3-hydroxyazetidin-1-yl)ethyl)-1H-indazol-4-yl)imidazo[1,2-a]pyrazin-2-yl)acetamide]
< 100	C[C@@H](N[S@+]([O-])C(C)(C)C)c1c(F)c(Cl)c(-c2cn3cc(NC(=O)[C@@H]4C[C@@H]4F)nc3cn2)c2cn[nH]c12 [Example 133, (1S,2S)-N-(6-(7-((R)-1-(((R)-tert-butylsulfinyl)amino)ethyl)-5-chloro-6-fluoro-1H-indazol-4-yl)imidazo[1,2-a]pyrazin-2-yl)-2-fluorocyclopropane-1-carboxamide]
< 100	COc1c(F)c(NC(C)C)c2[nH]ncc2c1-c1cn2cc(NC(=O)[C@@H]3C[C@@H]3C#N)nc2cn1 [Example 164, (1R,2S)-2-cyano-N-(6-(6-fluoro-7-(isopropylamino)-5-methoxy-1H-indazol-4-yl)imidazo[1,2-a]pyrazin-2-yl)cyclopropane-1-carboxamide]
101 to 500	CC(C)Nc1c(F)c(Cl)c(-c2cn3cc(NC(=O)c4ccccn4)nc3cn2)c2cn[nH]c12 [Example 58, N-(6-(5-chloro-6-fluoro-7-(isopropylamino)-1H-indazol-4-yl)imidazo[1,2-a]pyrazin-2-yl)picolinamide]
< 100	Cc1c(F)c(C(C)CO)c2[nH]ncc2c1-c1cn2cc(NC(=O)[C@@H]3C[C@@H]3F)nc2cn1 (stereo partly drawn) [Example 8, (1S,2S)-2-fluoro-N-(6-(6-fluoro-7-(1-hydroxypropan-2-yl)-5-methyl-1H-indazol-4-yl)imidazo[1,2-a]pyrazin-2-yl)cyclopropane-1-carboxamide]
< 100	CC(O)c1c(F)c(C(F)F)c(-c2cn3cc(NC(=O)[C@@H]4C[C@@H]4F)nc3cn2)c2cn[nH]c12 (stereo partly drawn) [Example 49, (1S,2S)-N-(6-(5-(difluoromethyl)-6-fluoro-7-(1-hydroxyethyl)-1H-indazol-4-yl)imidazo[1,2-a]pyrazin-2-yl)-2-fluorocyclopropane-1-carboxamide]
< 100	CC(C)Nc1c(F)c(Cl)c(-c2cn3cc(NC(=O)[C@@H]4C[C@@H]4C(N)=O)nc3cn2)c2cn[nH]c12 [Example 39, (1R,2S)-N1-(6-(5-chloro-6-fluoro-7-(isopropylamino)-1H-indazol-4-yl)imidazo[1,2-a]pyrazin-2-yl)cyclopropane-1,2-dicarboxamide]
